Source: article PMC8282722 (Current biology : CB, 2021)

Target: T1, GFP-Rab34 (LAP-Rab34) (Homo sapiens, UniProt Q9BZG1)
T1 sequence (Q9BZG1 1-259): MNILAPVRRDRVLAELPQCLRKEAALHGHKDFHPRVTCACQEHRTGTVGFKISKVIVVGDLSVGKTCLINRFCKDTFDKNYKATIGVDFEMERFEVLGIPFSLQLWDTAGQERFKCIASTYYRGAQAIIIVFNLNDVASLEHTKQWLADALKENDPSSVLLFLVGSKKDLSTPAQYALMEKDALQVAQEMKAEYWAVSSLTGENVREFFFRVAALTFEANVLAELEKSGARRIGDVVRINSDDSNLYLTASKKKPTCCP
Type: cell-based
Conditions: labelled compound; HEK293T cells; 10 mM MgCl2 in lysis buffer

SMILES: Nc1nc2c(ncn2[C@@H]2O[C@H](COP(=O)(O)OP(=O)(O)O)[C@@H](O)[C@H]2O)c(=O)[nH]1 [GDP]
- 32P metabolic labelling in cells, anti-GFP immunoprecipitation, TLC of bound nuc: wildtype Rab34 was mostly GDP-bound
